Experimental data reported in PMC9643865, “Bromo-protopine, a novel protopine derivative, alleviates tau pathology by activating chaperone-mediated autophagy for Alzheimer’s disease therapy” (Frontiers in Molecular Biosciences, 2022).
Read-outs that look alike come from different tables or passages of the source.

Experiments:
3xTg-AD mice = experiment: Morris water maze test; format: in vivo; settings: oral, 1 and 2.5 mg/kg, 8 months
Experimental: Female homozygous 3xTg-AD mice carrying transgenes for APP (Swedish KM670/671Nl), MAPT (tauP301L) and Psen1 (M146V) were procured from Jackson’s Laboratory (# 004807). The transgenic mice colonies were bred and maintained in the HKBU animal house at 23 ± 2 °C, 60 ± 15% relative humidity with regular access to food and water. Seven-month-old 3xTg-AD mice were randomly segregated into three treatment groups: Tg-Vehicle, 1 mg/kg, and 2.5 mg/kg PRO-Br. PRO-Br was administered orally for 8 months (n = 8). The bodyweight of mice from all the groups was recorded once every week.
To determine the memory functions of experimental mice, the Morris water maze test was performed according to the procedure described previously ([Iyaswamy et al., 2020]). Mice training preliminary to the probe trail was performed in two phases. The first phase, known as the visible-platform training, comprised four trials, for 1 day. In each trial, a platform was placed in the tank, 1 cm below the surface of the (clear) water. The mouse was introduced, and the time required for the mouse to find the platform was recorded. The position of the platform was changed for every trial. […] The distance travelled (cm) to reach the platform in the target quadrant was observed and recorded by a video tracking method (Ethovision, Noldus Information Technology, Version 3).

P301S mice [1] = experiment: Contextual fear conditioning test; format: in vivo; settings: oral, 2.5 months
Experimental: (§1) Female homozygous P301S mice bearing the transgene for MAPT (P301S), were generous gifts from Michael Goedert. P301S-tau mice (1.5-month-old, n = 8) were administered with PRO-Br daily for 2.5 months. The mice models employed in the study were maintained under 12 h light-dark cycles and were provided ad libitum access to chow and water.
After treating P301S mice with PRO-Br, fear memory consolidation was evaluated by the contextual fear conditioning (CFC) test. The experimental set-up consisted of two individual sound-proof chambers, each having an electric grid on the surface. Inside each chamber, a speaker was attached to introduce a cue tone. The movement of the mice was observed and recorded by ANY maze tracking software on a laptop. The experiment was performed with a continuous white noise (40 units) and white light (40 lux). On the first day of the training session, mice were introduced into the chamber and permitted to explore for 2.5 min. Next, each mouse received three consecutive foot shock cycles; each started with a 28 s cue tone (1,500 Hz) and finished with a 2 s foot shock ([…]). On the second day, the mice were allowed to explore the grid for 3 min, after which they received a cue tone for 30 s without foot shock, and the freezing time was recorded.

P301S mice [2] = experiment: Brain immunoblotting (sarkosyl tau fractions, chaperones, LAMP2A) and IHC; format: in vivo
Experimental: as §1
Brain tissues from experimental mice were carefully isolated, washed with 1X PBS, and fixed with 4% paraformaldehyde. Post-fixation for 48 h, brain tissues were transferred to 30% sucrose solution for cryopreservation. Tissue sections (30 μm) were obtained using a cryotome, maintained at a constant -30°C. Permeabilization was performed with 0.4% triton-X-100 for 10 min. For tau immunofluorescence, PHF1 primary antibody was added, and sections were kept overnight at four°C. The following day, an appropriate secondary antibody was added at RT for 1.5 h. DAPI was used as a nuclear stain for 5 min. For DAB staining, AT8 primary antibody was added to the sections overnight. The next day, an appropriate secondary antibody was added for 1.5 h. Staining was performed by employing a Vectastain-ELITE ABC-HRP kit according to the manufacturer’s procedure. […] Images of cortical/hippocampal regions were taken with an Eclipse 80i fluorescence microscope (Nikon Instruments Inc.). […] The captured images were quantified using ImageJ (NIH) software.
Brain tissues of 3xTg-AD and P301S mice were separated, sagittally, into equal halves. […] Protein lysates were evaluated for changes in levels of phospho epitopes of tau (AT8, CP13, PHF-1, MC-1, and ALZ50), and for total htau (HT7) using Western blot.
After PRO-Br treatment, cells were solubilised using cold RIPA lysis buffer (9803, Life Technologies), containing protease and phosphatase inhibitor tablets. […] Total protein concentration was determined by BCA protein assay, and the samples were separated on SDS-PAGE and transferred to PVDF membranes. […] Films were scanned, and the relative intensities of the signals were analyzed using ImageJ software.

[3] = Pharmacokinetic study in brain and plasma after oral dosing, LC-MS/MS; format: in vivo, ICR mice
Experimental: To determine the amount of PRO-Br in the brain, a pharmacokinetic study was performed employing 3-month-old female ICR mice (n = 6, 30 ± 2 g). PRO-Br (10 mg/kg b. wt) was injected orally. Brain tissues and blood samples (intracardial) were collected at various time-points (0, 15, 30, 45, 60, 75, 120, 240, 360, 480 min). Brain tissues and plasma samples were kept at −80°C until analysis. On the day of analysing the samples, the brain tissues were thawed on ice and half brain tissue was taken for analysis. To 200 mg of tissue, 4 times the volume of methanol (100%) was added, and homogenized until a clear solution was observed. The samples were centrifuged at 15,000 RPM for 10 min at 4°C. The supernatant was separated and analyzed using LC-MS/MS.
Quantification of PRO-Br in mice brains was performed by Agilent 6410 LC-ESI-Triple-Quad/TOF. The mobile phase (A) consisted of water with 0.1% formic acid, and the mobile phase (B) consisted of acetonitrile with 0.1% formic acid (B). C18 column was used to elute the desired solutes, based on the protocol: 0–5 min, 23–50% B; 5–15 min, 50–60% B; 15–15.01 min, 60–95% B; 15.01–22 min, 95% B. The ions of PRO-Br were detected in positive ionization mode. Multiple reaction monitoring (MRM) mode was used to monitor the analytes of PRO-Br.

Q: With `CN1CCc2cc3c(cc2C(=O)Cc2c(Br)cc4c(c2C1)OCO4)OCO3` [PRO-Br, bromo-protopine] as the compound, how does the “learning and memory impairment (Morris water maze)” value (3xTg-AD mice) read?
A: significantly reversed the learning and memory impairment

Q: And the “freezing percentage (CFC)” value (P301S mice [1])?
A: significant increase in freezing percentage

Q: What about the “AT8- and PHF1-positive cell counts” value (P301S mice [2]; IHC) of the same compound?
A: significantly reduced

Q: And the “expression of sarkosyl-insoluble phospho-tau variants” value (P301S mice [2]; brain, immunoblotting)?
A: specifically reduced the expression of sarkosyl-insoluble phospho-tau variants in a dose-dependent manner

Q: And the “protein expression of LAMP2A” value (P301S mice [2]; brain, immunoblotting)?
A: dose-dependently increased

Q: What about the “time retained in the brain” value ([3]; 10 mg/kg oral, female ICR mice, brain) of the same compound?
A: 4.2 h

Q: What about the brain penetrating efficacy ([3]; compared to PRO) of the same compound?
A: superior compared to its parent compound

Q: And the Kp ([3]; mouse, brain, 10 mg/kg oral, female ICR mice, read-out: brain/plasma ratio)?
A: 8.08

Q: And the Cmax ([3]; mouse, 10 mg/kg oral, female ICR mice, brain, read-out: maximum concentration (Cmax) in the brain)?
A: 425 ng/g

Q: And the Tmax ([3]; mouse, 10 mg/kg oral, female ICR mice, brain, read-out: maximum time (Tmax) in the brain (converted))?
A: 30 min

Q: What about the Cmax ([3]; mouse, 10 mg/kg oral, female ICR mice, plasma, read-out: Cmax in the plasma) of the same compound?
A: 91.9 ng/mL

Q: And the Tmax ([3]; mouse, 10 mg/kg oral, female ICR mice, plasma, read-out: Tmax in the plasma (converted))?
A: 15 min
